Reference: PubChem BioAssay (NCI)
Where “and” joins values, the source holds several entries; their conditions need not be identical. Equal entries are not always repeated.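 Protocol summary: plate cells (96-well), add compound at 5 concentrations, incubate 48 h, interpolate endpoints linearly. GI50: concentration for 50% inhibition of growth. At the TGI there is no net growth.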

How the values were obtained:
Test in all cases: inhibition of tumour cell growth, NCI panel, 48 h
SN12C renal = system: SN12C renal
UO-31 renal = system: UO-31 renal
SNB-78 CNS = system: SNB-78 CNS
LXFL 529 NSCLC = system: LXFL 529 NSCLC
K-562 leukemia = system: K-562 leukemia
SK-MEL-28 melanoma = system: SK-MEL-28 melanoma
COLO 205 colon = system: COLO 205 colon
HS 578T breast = system: HS 578T breast
NCI/ADR-RES ovarian = system: NCI/ADR-RES ovarian
T-47D breast = system: T-47D breast

| SMILES | TGI (SN12C renal) [µM] | TGI (UO-31 renal) [µM] | TGI (SNB-78 CNS) [µM] | TGI (LXFL 529 NSCLC) [µM] | TGI (K-562 leukemia) [µM] | TGI (SK-MEL-28 melanoma) [µM] | TGI (COLO 205 colon) [µM] | GI50 (SN12C renal) [µM] | GI50 (UO-31 renal) [µM] | GI50 (LXFL 529 NSCLC) [µM] | GI50 (K-562 leukemia) [µM] | GI50 (SK-MEL-28 melanoma) [µM] | GI50 (COLO 205 colon) [µM] | GI50 (HS 578T breast) | TGI (HS 578T breast) [µM] | GI50 (NCI/ADR-RES ovarian) | TGI (NCI/ADR-RES ovarian) [µM] | GI50 (T-47D breast) | TGI (T-47D breast) [µM] |
| --- | --- | --- | --- | --- | --- | --- | --- | --- | --- | --- | --- | --- | --- | --- | --- | --- | --- | --- | --- |
| Cc1nc(Nc2ccc(Cl)cc2)sc1C(=O)NNc1ccc([N+](=O)[O-])cc1[N+](=O)[O-] | 36.2 | 27.2 | > 100 | 30.9 | 46.1 | 34.1 | 39.9 | – | – | – | – | – | – | – | – | – | – | – | – |
| Cc1[nH]c2ccccc2c1C(=O)CC1(O)C(=O)Nc2ccccc21 (configuration not stated) | > 100 | > 100 | > 100 | > 100 | > 100 | > 100 | > 100 | – | – | – | – | – | – | – | – | – | – | – | – |
| c1cc(N(CCn2cccn2)CCn2cccn2)cc(N(CCn2cccn2)CCn2cccn2)c1 | > 100 | > 100 | > 100 | > 100 | > 100 | > 100 | > 100 | – | – | – | – | – | – | – | – | – | – | – | – |
| CC(=O)[CH-]C(C)=O.CC(=O)[CH-]C(C)=O.[CH2-]CCC.[CH2-]CCC.[Sn+4] | 1.67 | 2.21 | – | 0.185 | > 100 | 1.67 | 1.05 | 0.346 | 1.03 | 0.0493 | 0.283 | 0.436 | 0.304 | – | – | – | – | – | – |
| CC(C)CC(NC(=O)c1cccc(O)c1O)C(=O)NCc1cc(CNC(=O)C(CC(C)C)NC(=O)c2cccc(O)c2O)cc(CNC(=O)C(CC(C)C)NC(=O)c2cccc(O)c2O)c1 (configuration not stated) | 56.3 | 70.1 | > 100 | 13.8 | > 100 | 68.5 | 34.3 | – | – | – | – | – | – | – | – | – | – | – | – |
| CC(C)=CC(=O)C/C(=N\NC(N)=S)C(=O)Nc1ccc(Cl)cc1 | > 100 | > 100 | > 100 | > 100 | > 100 | > 100 | > 100 | – | – | – | – | – | – | – | – | – | – | – | – |
| [Cl-].[O-]/N=C(\c1ccccc1)c1ccccn1.[O-]/N=C(\c1ccccc1)c1ccccn1.[O-]/N=C(\c1ccccc1)c1ccccn1.[Sm+3] | > 100 | 55.5 | – | > 100 | > 100 | 94.8 | > 100 | 33.1 | 18.7 | 41.4 | 32.6 | 30.5 | 31.3 | – | – | – | – | – | – |
| CCc1cc(Cc2cc(Cl)c(NC(=O)C(=O)C3NC(=O)NC3=O)c(CC)c2)cc(Cl)c1NC(=O)C(=O)C1NC(=O)NC1=O (configuration not stated) | > 100 | > 100 | > 100 | > 100 | > 100 | > 100 | > 100 | – | – | – | – | – | – | – | – | – | – | – | – |
| CN(C)CC(C)(C)/C(=N\Nc1ccccc1)c1ccccc1 | > 100 | 29.3 | > 100 | 51.4 | > 100 | > 100 | > 100 | – | – | – | – | – | – | – | – | – | – | – | – |
| O=C(O)CCCCCCC[C@H]1S[C@H]1CCCCCCO | – | > 100 | > 100 | – | > 100 | > 100 | > 100 | – | – | – | – | – | – | – | – | – | – | – | – |
| C=C(COC(C)=O)CC(OC(C)=O)c1ccccc1 (configuration not stated) | > 100 | > 100 | > 100 | > 100 | > 100 | > 100 | > 100 | – | – | – | – | – | – | – | – | – | – | – | – |
| CN1CCCC2(CCCc3ccccc32)C1 (configuration not stated) | > 100 | > 100 | > 100 | > 100 | > 100 | > 100 | > 100 | – | – | – | – | – | – | – | – | – | – | – | – |
| Cc1cc2c(ccc3c(C)cc(=O)oc32)o1 | > 100 | > 100 | > 100 | > 100 | > 100 | > 100 | > 100 | – | – | – | – | – | – | – | – | – | – | – | – |
| COc1ccc2c(CN3CCCCC3CO)cc3cc(OC)c(OC)cc3c2c1 (configuration not stated) | 26.2 | 12.5 | 23.1 | 16.8 | 10.1 | 18.6 | 10.3 | – | – | – | – | – | – | – | – | – | – | – | – |
| COCCCNC(=O)C1C(=O)N(CCCOC)C(=O)/C1=N\N (configuration not stated) | > 100 | > 100 | > 100 | > 100 | > 100 | > 100 | > 100 | – | – | – | – | – | – | – | – | – | – | – | – |
| O=C1c2ccccc2C(Br)(Br)c2ccccc21 | > 31.6 | > 31.6 | > 100 | > 31.6 | > 31.6 | > 31.6 | > 31.6 | – | – | – | – | – | – | – | – | – | – | – | – |
| Cc1ccc(S(=O)(=O)N/N=C(\c2nc3ccc(Cl)cc3[nH]c2=O)C(O)c2cccc([N+](=O)[O-])c2)cc1 (configuration not stated) | > 100 | > 100 | > 100 | > 100 | > 100 | > 100 | > 100 | – | – | – | – | – | – | – | – | – | – | – | – |
| CN(C)CC(C)(C)C(=O)/C=C/c1ccc(/C=C/C(=O)C(C)(C)CN(C)C)cc1 | 3.55 | 3.49 | – | 2.4 | 0.594 | 3.5 | 2.24 | – | – | – | – | – | – | – | – | – | – | – | – |
| CN[C@H]1C=C[C@@H]2/C=C(C)/C=C/[C@@H](C)[C@H]([C@H](C)[C@H](O)[C@@H](C)NC(C)=O)OC(=O)/C=C/C=C(C)\C=C\[C@]2(C)C1 | > 49 | > 49 | – | – | > 49 | 33.6 | 8.64 | 0.00633 | 0.00994 | – | 0.0202 | 0.00898 | 0.00815 | 0.0597 µM and 0.0123 µM | > 49 | 0.44 µM and 0.347 µM | > 49 | < 0.001 µM and 0.0049 µM | > 49 |
| CCN(Cc1cccc(F)c1)c1ccc(CO)c(Cl)c1 | > 50.5 | 58.7 | – | – | > 100 | 45.5 | 4.85 | 14.6 | 5.09 | – | 3.54 | 16.2 | 1.57 | 19.5 µM | 74.4 | 15.9 µM | 53.6 | 0.148 µM | 0.662 |
| OCc1ccc(-c2ccc(-c3ccc(CO)o3)[se]2)o1 | > 100 | > 100 | – | – | > 100 | > 100 | > 100 | > 100 | > 95.3 | – | 38.1 | > 100 | 60.2 | > 79 µM | > 100 | > 60.9 µM | > 100 | 15.7 µM | > 100 |
| CCOC(=O)c1sc(-c2ccc(OS(=O)(=O)c3ccc(Br)s3)c(C=O)c2)nc1C | 10.7 | 9.76 | – | – | > 100 | 33.4 | 33.8 | 3.09 | 2.63 | – | 3.17 | 11.4 | 16.8 | 10.6 µM | 36.3 | 2.96 µM | 12.9 | 2.77 µM | 12.1 |
